Measured values from PMC7596181 (Frontiers in Immunology, 2020).

Legend:
Type in all cases: cell-based
human TLR4 [1] = molecular target: T1, human TLR4 (Homo sapiens, UniProt O00206+Q9Y6Y9); assay: Competitive vs non-competitive antagonist type: agonist diluted in a fixed concentration of inhibitor, human TLR4 HEK-Blue SEAP; parameters: host or cells: HEK-Blue (HEK293-derived) reporter cells; details: fixed ML3 3 μM, ML4A 3 μM or Lipid IVa 0.1 μM; agonist PHAD or 3D-6A-PHAD diluted from 10 μM
Experimental: (§1) SEAP assays were performed to evaluate the extent to which TLR4 signaling was activated in HEK-Blue reporter cells expressing mouse or human receptors (CD14, MD2 and TLR4). Reporter cells were harvested when 70–80% confluent and plated in 96-well, flat-bottom microtiter plates either 1 h, one day or two days (5 × 10^4, 4 × 10^4 or 2 × 10^4 cells/well, respectively) before addition of TLR4 agonists for 18–24 h. Culture supernatants were transferred to U-bottom microtiter plates, centrifuged and transferred again to microtiter plates to ensure reporter cells were not present. The culture supernatants were added to QUANTI-BLUE substrate following instructions provided by the manufacturer (InvivoGen cat. nos. rep-qbl or rep-qbs) and incubated at 37°C in a tissue culture incubator. At successive intervals beginning 10 min after mixing the supernatants and substrate, the plates were placed in an Emax plate reader (Molecular Devices LLC) and optical density was measured at visible light wavelength […] (OD650). The shortest incubations at which dose response curve fits produced maximal R^2 ‘goodness of fit’ values, as determined by GraphPad Prism software, were used for analysis.
Pharmacological profiles of the TLR4 reagents were generated by performing dose response curves in one of four formats. 1) Agonist potency and efficacy (EC50 and height of dose plateau, respectively) were measured by diluting TLR4 reagents successively in complete culture medium [DMEM or RPMI supplemented with fetal bovine serum (FBS) or RPMI supplemented with human serum, depending on cell-type]. […] 2) Mixed agonist–antagonist potency and efficacy were measured by mixing a TLR4 agonist with a candidate antagonist at a fixed ratio and then performing half-log step dilutions before treating HEK reporter cells. […] 4) Inhibitory potency (IC50) was measured by diluting antagonists within a fixed concentration of a reference agonist, treating HEK reporter cells and performing SEAP assays as described.

human TLR4 [2] = molecular target: T1, human TLR4; assay: Mixed agonist-antagonist dose curves at fixed ratio, human TLR4 HEK-Blue SEAP; parameters: host or cells: HEK-Blue (HEK293-derived) reporter cells
Experimental: as §1
Pharmacological profiles of the TLR4 reagents were generated by performing dose response curves in one of four formats. 1) Agonist potency and efficacy (EC50 and height of dose plateau, respectively) were measured by diluting TLR4 reagents successively in complete culture medium [DMEM or RPMI supplemented with fetal bovine serum (FBS) or RPMI supplemented with human serum, depending on cell-type]. Half-log step dilutions were performed in 96-well, U-bottom microtiter plates using a multichannel pipette to transfer and mix the suspensions, with fresh tips used for each dilution step. One-tenth (20 μl) volumes from wells of the dilution plate were then transferred to wells containing cells that had been plated in nine-tenth volumes (180 μl) of culture medium. 2) Mixed agonist–antagonist potency and efficacy were measured by mixing a TLR4 agonist with a candidate antagonist at a fixed ratio and then performing half-log step dilutions before treating HEK reporter cells. Analysis of values obtained from SEAP assays of culture supernatants was then performed as described for preparations containing agonist alone, above. 3) Competitive vs allosteric or non-competitive antagonist type was evaluated by diluting a reference agonist within a fixed concentration of a candidate inhibitor in half-log steps, treating HEK reporter cells, performing SEAP assays and then analyzing the data as described for agonist assays, above. Competitive antagonists are characterized by values that reach the same dose plateau as for a reference, full agonist, while shifting potency to higher EC50 values. […] 4) Inhibitory potency (IC50) was measured by diluting antagonists within a fixed concentration of a reference agonist, treating HEK reporter cells and performing SEAP assays as described.

human THP-1 cells = assay: TNFα secretion (ELISA) by THP-1 cells; details: THP-1, PMA-treated, 18-24 h
Experimental: (§2) Human and mouse HEK-Blue reporter cells express human or mouse CD14, MD2, and TLR4 and secreted embryonic alkaline phosphatase (SEAP) under control of a promoter with binding sites for NFκB and AP-1 transcription factors (InvivoGen cat. nos. hkb-htlr4 and hkb-mtlr4). Cells were cultured as directed by the supplier, with the exception that Glutamax (ThermoFisher cat. no. 10569010) was used in place of L-glutamine, and TrypLE Express (ThermoFisher cat. no. 12605010) was used to release adherent cells for each passage. […]
(§3) ELISA was performed to measure TNFα secretion by cell-lines and primary cells exposed to TLR4 reagents as a measure of receptor activation. […] Human or mouse TNα was quantified using ELISA kits as directed by the kit supplier (eBioscience cat. nos. 88-7324-77 and 88-7324-88, respectively) using an Emax plate reader and SoftMax Pro analytical software (Molecular Devices, LLC). […]
(§4) Pharmacological profiles of the TLR4 reagents were generated by performing dose response curves in one of four formats. 1) Agonist potency and efficacy (EC50 and height of dose plateau, respectively) were measured by diluting TLR4 reagents successively in complete culture medium [DMEM or RPMI supplemented with fetal bovine serum (FBS) or RPMI supplemented with human serum, depending on cell-type]. […]

mouse RAW264.7 cells = assay: TNFα secretion (ELISA) by RAW264.7 cells; details: RAW264.7, 18-24 h
Experimental: as §2, §3, §4

[3] = mixed with 3D-6A-PHAD at 5:1 antagonist:agonist
[4] = mixed with PHAD, ML4A up to 30:1 and 60:1 antagonist:agonist

T1 sequence (O00206 24-839): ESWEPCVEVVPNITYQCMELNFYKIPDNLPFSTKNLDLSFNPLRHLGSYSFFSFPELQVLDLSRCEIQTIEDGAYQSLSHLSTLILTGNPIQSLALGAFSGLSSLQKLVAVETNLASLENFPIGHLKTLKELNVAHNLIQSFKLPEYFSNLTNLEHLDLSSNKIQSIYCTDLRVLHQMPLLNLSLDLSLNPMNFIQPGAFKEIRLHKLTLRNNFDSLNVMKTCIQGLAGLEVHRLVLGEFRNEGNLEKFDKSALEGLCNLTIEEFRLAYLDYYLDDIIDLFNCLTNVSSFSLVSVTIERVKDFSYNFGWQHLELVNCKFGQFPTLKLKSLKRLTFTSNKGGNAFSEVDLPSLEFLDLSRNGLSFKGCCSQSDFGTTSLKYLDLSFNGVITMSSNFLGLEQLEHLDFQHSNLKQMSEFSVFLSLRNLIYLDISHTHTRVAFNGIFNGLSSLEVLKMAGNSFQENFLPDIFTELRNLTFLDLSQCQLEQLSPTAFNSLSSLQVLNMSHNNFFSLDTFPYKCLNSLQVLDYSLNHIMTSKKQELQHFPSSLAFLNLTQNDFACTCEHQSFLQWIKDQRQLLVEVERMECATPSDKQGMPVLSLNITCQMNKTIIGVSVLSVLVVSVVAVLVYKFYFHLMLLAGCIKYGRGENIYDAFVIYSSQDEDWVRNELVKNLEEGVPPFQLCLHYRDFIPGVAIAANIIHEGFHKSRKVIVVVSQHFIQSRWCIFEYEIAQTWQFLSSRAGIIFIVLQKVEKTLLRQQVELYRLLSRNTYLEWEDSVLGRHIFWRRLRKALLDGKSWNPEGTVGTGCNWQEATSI
T1 sequence (Q9Y6Y9 17-160 limits assumed): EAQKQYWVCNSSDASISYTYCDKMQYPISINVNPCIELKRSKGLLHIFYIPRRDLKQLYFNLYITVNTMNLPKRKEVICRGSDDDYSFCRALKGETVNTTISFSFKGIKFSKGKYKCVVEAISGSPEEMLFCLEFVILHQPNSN

antagonist type (human TLR4 [1]) | effect on agonist dose curve in fixed-ratio mixture (human TLR4 [2]; [3]) | SMILES | effect on agonist dose curve in fixed-ratio mixture (human TLR4 [2]; [4]) | agonist profile, TNFα production (human THP-1 cells) | agonist profile, TNFα production (mouse RAW264.7 cells)
competitive antagonists of human TLR4 | appeared to limit its activity | CCCCCCCCCCCC(=O)OC(CCCCCCCCCCC)CC(=O)NC1C(OCC2OC(O)C(NC(=O)CC(O)CCCCCCCCCCC)C(O)C2O)OC(CO)C(OP(=O)(O)O)C1OC(=O)CC(O)CCCCCCCCCCC (stereo not shown) [ML4A] | very modestly reduced TLR4 stimulatory activity | – | –
– | – | CCCCCCCCCCCCCCCC(=O)OC(CCCCCCCCCCC)CC(=O)NC1C(O)OC(COC2OC(CO)C(OP(=O)(O)O)C(O)C2NC(=O)CC(CCCCCCCCCCC)OC(=O)CCCCCCCCCCC)C(O)C1O (stereo not shown) [ML4B] | – | largely inactive | largely inactive
competitive antagonists of human TLR4 | appeared to limit its activity | CCCCCCCCCCCC(=O)OC(CCCCCCCCCCC)CC(=O)NC1C(OCC2OC(O)C(NC(=O)CC(O)CCCCCCCCCCC)C(O)C2O)OC(CO)C(OP(=O)(O)O)C1O (stereo not shown) [ML3] | very modestly reduced TLR4 stimulatory activity | largely inactive | largely inactive
